Measured values from patent US7951595B2, “Methods for screening modulators of SLC17-type anion transport activity” (National University Corporation Okayama University, priority 2007, dated 2011).

T1: mouse SLC17A9 (mSLC17A9) (Mus musculus, UniProt Q8VCL5)
T1 construct: His6 (from pDEST10 vector) (N); made in house; host or cells: insect cells, baculovirus system (Sf9 named for virus production)
T1 sequence (Q8VCL5 1-447): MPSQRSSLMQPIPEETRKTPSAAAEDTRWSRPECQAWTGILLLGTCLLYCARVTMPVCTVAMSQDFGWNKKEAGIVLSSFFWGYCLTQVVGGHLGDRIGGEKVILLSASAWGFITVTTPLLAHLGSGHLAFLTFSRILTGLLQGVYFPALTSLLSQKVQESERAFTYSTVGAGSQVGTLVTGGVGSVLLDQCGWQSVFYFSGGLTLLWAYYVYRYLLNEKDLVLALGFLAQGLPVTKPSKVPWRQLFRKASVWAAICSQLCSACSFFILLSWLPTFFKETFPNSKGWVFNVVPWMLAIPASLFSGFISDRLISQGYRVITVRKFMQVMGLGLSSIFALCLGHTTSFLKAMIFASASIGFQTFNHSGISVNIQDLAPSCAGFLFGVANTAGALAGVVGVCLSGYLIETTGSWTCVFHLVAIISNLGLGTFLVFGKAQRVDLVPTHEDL

T2: human SLC17A9 (Homo sapiens, UniProt Q9BYT1, N228S)
T2 construct: His6 (from pDEST10 vector); made in house; host or cells: insect cells, baculovirus system (Sf9 named for virus production)
T2 sequence (Q9BYT1 1-430 isoform Q9BYT1-2 N222S): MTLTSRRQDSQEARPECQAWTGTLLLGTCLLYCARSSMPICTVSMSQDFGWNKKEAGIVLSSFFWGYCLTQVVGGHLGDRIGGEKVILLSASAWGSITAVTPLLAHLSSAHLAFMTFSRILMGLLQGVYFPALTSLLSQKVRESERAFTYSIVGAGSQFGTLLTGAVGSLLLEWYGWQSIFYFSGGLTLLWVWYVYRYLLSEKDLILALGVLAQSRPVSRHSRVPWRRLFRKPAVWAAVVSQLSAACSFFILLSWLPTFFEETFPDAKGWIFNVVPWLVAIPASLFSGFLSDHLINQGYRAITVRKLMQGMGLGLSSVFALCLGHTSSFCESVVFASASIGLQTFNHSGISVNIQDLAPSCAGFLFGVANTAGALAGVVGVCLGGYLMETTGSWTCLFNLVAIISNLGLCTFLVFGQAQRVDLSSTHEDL


Tests used:
SLC17A9 mRNA = assay: Knockdown of SLC17A9 by RNAi, SLC17A9 mRNA by real-time PCR; type: cell-based; conditions: 25 nM rat SLC17A9 siRNA, cultured 3 days, versus control siRNA, FIG. 19(A)
Protocol: (§1) Knockdown of SLC17A9 by RNAi was carried out as follows. A sequence for RNAi designed by Qiagen HP OnGuard siRNA Design was used. The nucleic acid sequence of the RNAi used was […] (SEQ ID NO: 15). This sequence and HiPerFect transfection reagent (Qiagen) were used for transfection of 25 nM AllStars negative control siRNA or 25 nM rat SLC17A9 siRNA, and the resultant was cultured for 3 days, to thereby perform knockdown of SLC17A9. […] The amounts of SCL17A9 mRNA in the knocked-down cells (RNAi) and control cells (control) were measured by real-time PCR, and as shown in FIG. 19(A), the amount of SLC17A9 mRNA was decreased by RNAi.

PC12 cells = assay: KCl-dependent ATP release after SLC17A9 knockdown; type: cell-based, rat; conditions: 25 nM siRNA, 3 days, KCl stimulus 30 minutes, FIG. 19(B)
Protocol: as §1

mouse SLC17A9 (mSLC17A9) = target: T1, mouse SLC17A9 (mSLC17A9); assay: ATP transport by reconstituted mSLC17A9 protein proteoliposomes; type: biochemical; conditions: added at 2 mM, uptake for 2 minutes, FIG. 22
Protocol: 20 μg of the purified mSLC17A9 protein and 0.5 mg of soybean-derived lipids were mixed, and the mixture was incubated at −80° C. for 5 minutes or longer. This mixture was thawed quickly by holding the tube in the hands, and was diluted 30-fold with a buffer solution containing 20 mM MOPS-Tris (pH 7.0), 0.15M sodium acetate, 2 mM magnesium acetate and 0.5 mM DTT. This dilution was centrifuged at 200,000×g at 4° C. for one hour, the supernatant was discarded, and the precipitate was resuspended in a buffer solution containing 20 mM MOPS-Tris (pH 7.0), 0.15M sodium acetate, 2 mM magnesium acetate and 0.5 mM DTT, to achieve reconstitution. […] The mixture was further incubated for 2 minutes. […] Furthermore, in an inhibitor test, an inhibitor at a predetermined concentration was added in the case of incubating the proteoliposomes.

human SLC17A9 = target: T2, human SLC17A9; assay: Nucleotide transport by human SLC17A9 reconstituted proteoliposomes (valinomycin-induced membrane potential, radiolabelled substrate); type: biochemical; conditions: for uptake of ADP and GTP into SLC17A9 reconstituted proteoliposomes over time: 100 μM each, FIG. 16; for effect of nucleotides on ATP transport: nucleotide 1 mM, FIG. 15
Protocol: 10 μg of purified SLC17A9 and 0.5 mg of soybean-derived lipids were mixed and incubated at −80° C. for 5 minutes or more. The mixture was thawed quickly by holding the tube in the hands, and was diluted 60-fold with a buffer solution containing 20 mM MOPS-Tris (pH 7.0), 0.15M sodium acetate, 2 mM magnesium acetate and 0.5 mM DTT. This dilution was centrifuged at 200,000×g at 4° C. for one hour, the supernatant was discarded, and the precipitate was resuspended in a buffer solution containing 20 mM MOPS-Tris (pH 7.0), 0.15M sodium acetate, 2 mM magnesium acetate and 0.5 mM DTT, to obtain SLC17A9 reconstituted proteoliposomes. As a control, liposomes without SLC17A9 were used.
The nucleotide transport activity was measured by the following procedure. The reconstituted proteoliposomes were incubated in a buffer solution containing 20 mM MOPS-Tris (pH 7.0), 0.15M potassium acetate, 2 mM magnesium acetate and 4 mM potassium chloride, at 27° C. for 2 minutes, and valinomycin was added thereto to a final concentration of 2 μM. The mixture was incubated for further 2 minutes. The point of addition of 0.1 mM [α-^32P]ATP (3.7 GBq/mmol) was defined as the initiation of activity measurement. At a predetermined time point, 130 μL of the reaction liquid was recovered and centrifuged through a Sephadex G-50 (fine) spin column at 760×g for 2 minutes. The uptake of ATP was measured by measuring the radioactivity included in the reaction liquid that had passed through the column using a liquid scintillation counter. In the measurement of the transport activity for ADP and GTP, [2,8-^3H]ADP (0.37 GBq/mmol) and [α-^32P]GTP (3.7 GBq/mmol) were used instead of ATP as the substrate.
In an experiment for an inhibitor, a predetermined concentration of an inhibitor was added upon incubation of the proteoliposomes.

[1] = substrate: Nc1ncnc2c1ncn2[C@@H]1O[C@H](COP(=O)(O)OP(=O)(O)OP(=O)(O)O)[C@@H](O)[C@H]1O; assay: cells, lysate or membranes named; conditions: other: human SLC17A9 proteoliposomes, ATP uptake at various concentrations; pH 7.0; 27.0 °C

Molecule	inhibition of radioactive ATP uptake (mouse SLC17A9 (mSLC17A9))	uptake of ADP and GTP into SLC17A9 reconstituted proteoliposomes over time (human SLC17A9)	effect of nucleotides on ATP transport (human SLC17A9)	amount of SLC17A9 mRNA (SLC17A9 mRNA)	KCl-dependent ATP release (PC12 cells)	Km [1] [mM]
SLC17A9 RNAi: RNAi of sequence UAUUCGAGAGAAUGUCACG (SEQ ID NO: 15) for knockdown of SLC17A9 (listed as RNA, chemistry not given here)				decreased	suppressed	
human SLC17A9 (Homo sapiens; N228S) (protein) MTLTSRRQDSQEARPECQAWTGTLLLGTCLLYCARSSMPICTVSMSQDFGWNKKEAGIVLSSFFWGYCLTQVVGGHLGDRIGGEKVILLSASAWGSITAVTPLLAHLSSAHLAFMTFSRILMGLLQGVYFPALTSLLSQKVRESERAFTYSIVGAGSQFGTLLTGAVGSLLLEWYGWQSIFYFSGGLTLLWVWYVYRYLLSEKDLILALGVLAQSRPVSRHSRVPWRRLFRKPAVWAAVVSQLSAACSFFILLSWLPTFFEETFPDAKGWIFNVVPWLVAIPASLFSGFLSDHLINQGYRAITVRKLMQGMGLGLSSVFALCLGHTSSFCESVVFASASIGLQTFNHSGISVNIQDLAPSCAGFLFGVANTAGALAGVVGVCLGGYLMETTGSWTCLFNLVAIISNLGLCTFLVFGQAQRVDLSSTHEDL						0.8

Second part, led by results:

inhibition of radioactive ATP uptake (mouse SLC17A9 (mSLC17A9))	uptake of ADP and GTP into SLC17A9 reconstituted proteoliposomes over time (human SLC17A9)	effect of nucleotides on ATP transport (human SLC17A9)	Molecule	amount of SLC17A9 mRNA (SLC17A9 mRNA)	KCl-dependent ATP release (PC12 cells)	Km [1] [mM]
compete with ATP	actually taken up	recognized as transport substrates	Nc1nc2c(ncn2[C@@H]2O[C@H](COP(=O)(O)OP(=O)(O)OP(=O)(O)O)[C@@H](O)[C@H]2O)c(=O)[nH]1 [GTP]			
compete with ATP	actually taken up	recognized as transport substrates	Nc1ncnc2c1ncn2[C@@H]1O[C@H](COP(=O)(O)OP(=O)(O)O)[C@@H](O)[C@H]1O [ADP, adenosine diphosphate]			
